In patent publication US7282339B2, “Competitive immunoassay” (Invitrogen Corporation, priority 2003, dated 2007):

Columns and labels:
[1] = tested on: P-Tyr-100 antiphosphotyrosine monoclonal antibody; experiment: Ligand analog screening: fluorescence intensity and polarization vs P-Tyr-100 antibody concentration (Examples 22, 24); format: binding, mouse; conditions: for Fmax/Fmin: ratio of fluorescence intensity at lowest (Fmax) to highest (Fmin) antibody concentration, 50 nM ligand analog, P-Tyr-100 0.8 to 500 nM, ex/em 480/535 nm
Method: Solutions of test compounds (100 nM) were prepared were prepared in 50 mM Tris-HCl pH 7.5, 10 mM MgCl2, 0.01% Brij-35, 500 μM ATP, 2 mM DTT, 1 mM EGTA. 20 μl aliquots of these solutions were pipetted into the wells of a 384-well microplate. 20 μl aliquots of a serially-diluted […] stock solution of P-Tyr-100 antiphosphotyrosine monoclonal antibody (Cell Signaling Technology, Beverly, Mass.) were added to the wells. The resulting samples contained 50 nM of each ligand analog (Compounds 15, 7, 8, 9, 18 and 19) and antibody concentrations ranging from 0.8 to 500 nM. Fluorescence polarization and intensity of the samples was measured on an EnVision microplate reader (PerkinElmer Life Sciences) using excitation/emission filter settings of 480/535 nm. Increasing fluorescence polarization as a function of antibody concentration (A) provides confirmation of ligand analog binding to the antibody. […] Phosphotyrosine peptide, target ligand, (phospho-pp60 c-src (521-533); TSTEPQY*QPGENL, Bachem California, Inc. Torrance, Calif.) was then added to all samples at a concentration of 10 μM and the fluorescence intensity and polarization measurements were repeated (C, D). […] Displacement of the ligand analogs from antibody is confirmed by depolarization of fluorescence (D compared to A). […] See, FIG. 14.
Compound 12 and Compound 13 were assessed for efficacy using the methods described in Example 22. […] Samples containing 100 nM of Compound 13 and additional components identified in the figure legend were prepared in 50 mM Tris-HCl pH 7.5, 10 mM MgCl2, 0.01% Brij-35, 100 μM ATP, 2 mM DTT, 1 mM EGTA. 100 μL volumes of these samples were transferred to microcuvettes. The fluorescence emission spectrum was recorded for each sample using a Hitachi F-4500 spectrofluorometer (excitation wavelength=520 nm). See, FIG. 15

[2] = tested on: Rabbit anti-Akt polyclonal antibody; experiment: Binding of ethanolamine phosphate ligand analog by anti-Akt antibody (Example 10); conditions: 50 nM compound, antibody zero to 250 nM
Method: A 5 mM solution of BODIPY FL ethanolamine phosphate Compound 2 was made in water. A 2.5 mM solution of BODIPY FL ethanolamine (Compound 1) was made in 50% (v/v) DMSO, See Example 1. Rabbit anti-Akt polyclonal antibody (Cell Signaling Technology, catalog # 9611) was serially diluted in 5 μl 50 mM Tris buffer, pH 7.5 in a black, 384-well flat-bottom Packard ProxiPlate preblocked with 0.25% (v/v) Mowiol. After the antibody was serially diluted in the plate, 5 μl of either Compound 2 or Compound 1 was added to the same wells. The final concentration of both compounds in the wells was each 50 nM. The final antibody concentration in the wells was zero to 250 nM. The fluorescence intensity was measured on an EnVision microplate reader (Perkin Elmer), PMT 1 gain 155, PMT 2 gain 191, excitation light 76%, 100 flashes at 9 mM height.

[3] = tested on: Compound 15+P-Tyr-100 complex; experiment: Displacement of phosphotyramide ligand analog by phosphotyrosine peptide but not by ATP (Example 17); format: binding, mouse; conditions: zero to 1 mM ATP
Method: A 5 mM solution of Compound 15 was prepared in water. Separate reactions of 100 nM Compound 15+/−100 nM P-Tyr-100 (Cell Signaling Technology, catalog # 9411) complexes were made in kinase buffer with various amounts of ATP (50 mM Tris, pH 7.5, 10 mM MgCl2, 1 mM EGTA, 0.01% Brij 35, 2 mM DTT, with zero, 0.1, 0.25, 0.5, or 1 mM ATP). The fluorescence emission of each of the ten solutions was measured using a Hitachi F-4500 spectrofluorometer (Ex 450, Em 510, slit width 5 nm for both wavelengths, PMT gain 700 V). After the initial read, 10 μM phospho-pp60 c-src (10 μM final concentration) peptide (521-533) (TSTEPQY*QPGENL) (Bachem, catalog # H-3258) in kinase buffer was added to the antibody:ligand reactions, and the resulting fluorescence intensity was measured on the same instrument at the same settings.

O=C(NCCc1ccc(OP(=O)(O)O)cc1)c1ccc(-c2c3ccc(=O)cc-3oc3cc(O)ccc23)c(C(=O)O)c1 [Compound 8, 5-FAM phosphotyramide]
performance in displacement assay, 6-position vs 5-position ([1]; fluorescence intensity readout): superior performance
Fmax/Fmin [1]: 1.3

O=C(O)c1cc(NC(=S)NCCc2ccc(OP(=O)(O)O)cc2)ccc1-c1c2ccc(=O)cc-2oc2cc(O)ccc12 [Compound 18, 5-FITC phosphotyramide]
Fmax/Fmin [1]: 1.7

O=C(CSc1c(F)c(F)c(C(=O)O)c(-c2c3cc(F)c(=O)cc-3oc3cc(O)c(F)cc23)c1F)NCCc1ccc(OP(=O)(O)O)cc1 [Compound 7, Oregon Green 514 phosphotyramide]
Fmax/Fmin [1]: 4.0

CN(C)c1ccc2c(-c3cc(C(=O)NCCc4ccc(OP(=O)([O-])O)cc4)ccc3C(=O)O)c3ccc(=[N+](C)C)cc-3oc2c1 [Compound 12]
fluorescence intensity change on antibody binding ([1]; methods of Example 22): little or no analytically useful fluorescence intensity change
fluorescence polarization change on antibody binding ([1]; methods of Example 22): large fluorescence polarization changes

O=C(NCCc1ccc(OP(=O)(O)O)cc1)c1ccc(C(=O)O)c(-c2c3ccc(=O)cc-3oc3cc(O)ccc23)c1 [Compound 9, 6-FAM phosphotyramide]
binding affinity for the antibody, 6-isomer compared to 5-isomer ([1]; compared to Compound 8): increased binding affinity
quenching by the antibody, 6-isomer compared to 5-isomer ([1]; compared to Compound 8): increased quenching
Fmax/Fmin [1]: 3.2

BODIPY FL ethanolamine phosphate [Compound 2]
quenching of ligand analog when bound by the antibody [2]: slightly quenched

Nc1ncnc2c1ncn2[C@@H]1O[C@H](COP(=O)(O)OP(=O)(O)OP(=O)(O)O)[C@@H](O)[C@H]1O [ATP]
displacement of the phosphotyramide ligand analog [3]: does not displace

6-FITC phosphotyramide [Compound 19]
Fmax/Fmin [1]: 1.6
